Assay results: ChEMBL document CHEMBL4396955, “Novel thiazolidines: Synthesis, antiproliferative properties and 2D-QSAR studies” (Bioorg Med Chem, 2019)

Experiments:
HCT-116 = test: Antiproliferative activity against human HCT116 cells assessed as reduction in cell growth incubated for 72 hrs by MTT assay; assay type: functional, cell-based; settings: HCT-116, 72 h
MCF7 [1] = test: Antiproliferative activity against human MCF7 cells assessed as reduction in cell growth incubated for 72 hrs by MTT assay; assay type: functional, cell-based; settings: MCF7, 72 h
TERT-RPE1 = test: Cytotoxicity against human RPE1 cells assessed as reduction in cell growth incubated for 72 hrs by MTT assay; assay type: cell-based; settings: RPE-1, 72 h
[2] = target: T1, Peroxisome proliferator-activated receptor gamma (Homo sapiens, UniProt P37231); test: Antagonist activity at human PPARgamma LBD expressed in yeast AH109 cells assessed as reduction in rosiglitazone-stimulated PPARgamma/CBP interaction by measuring alpha galactosidase activity using PNP-alpha-Gal as substrate by alpha-galactosidase based yeast-two hybrid assay; assay type: cell-based
T1 sequence (P37231 whole entry): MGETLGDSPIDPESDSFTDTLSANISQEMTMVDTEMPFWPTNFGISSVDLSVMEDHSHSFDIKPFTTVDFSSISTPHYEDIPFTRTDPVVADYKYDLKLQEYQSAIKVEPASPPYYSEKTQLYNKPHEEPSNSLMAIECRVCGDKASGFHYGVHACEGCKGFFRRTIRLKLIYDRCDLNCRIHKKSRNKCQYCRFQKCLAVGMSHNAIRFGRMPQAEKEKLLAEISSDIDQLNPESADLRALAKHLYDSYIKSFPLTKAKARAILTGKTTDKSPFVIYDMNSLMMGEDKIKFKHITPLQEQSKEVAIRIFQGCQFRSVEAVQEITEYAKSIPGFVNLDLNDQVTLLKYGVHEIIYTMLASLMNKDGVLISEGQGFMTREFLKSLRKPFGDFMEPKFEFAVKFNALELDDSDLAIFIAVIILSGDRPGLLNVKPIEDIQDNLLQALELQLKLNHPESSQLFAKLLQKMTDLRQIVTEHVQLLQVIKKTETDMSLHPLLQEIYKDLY

MCF7 [3] = test: Antiproliferative activity against human MCF7 cells assessed as reduction in cell growth incubated for 48 hrs by MTT assay; assay type: functional, cell-based; settings: MCF7, 48 h

| SMILES | IC50 (HCT-116) | IC50 (MCF7 [1]) | IC50 (TERT-RPE1) | IC50 [2] | IC50 (MCF7 [3]) |
| --- | --- | --- | --- | --- | --- |
| COc1ccc(/C=C2\S/C(=N\c3c(C)cccc3C)N(C)C2=O)cc1 | > 100 µM | > 100 µM | > 100 µM |  |  |
| COc1ccc(/C=C2\S/C(=N\c3ccc(C)c(Cl)c3)N(C)C2=O)cc1 | 14.1 µM | > 100 µM | 23 µM |  |  |
| COc1ccc(/C=C2\S/C(=N\c3ccc(C)cc3)N(C)C2=O)cc1 | > 100 µM | > 100 µM | > 100 µM |  |  |
| COc1ccc(/C=C2/CN(C)/C(=N/c3ccc(Br)cc3)S2)cc1 | 8.9 µM | 7.4 µM | 61.3 µM |  |  |
| COc1ccc(/C=C2\S/C(=N\c3ccc(Cl)cc3)N(C)C2=O)cc1 | 10.4 µM | 39.3 µM | > 100 µM |  |  |
| FC(F)(F)c1cc(/N=C2/NC/C(=C/c3ccccc3)S2)cc(C(F)(F)F)c1 | 16.1 µM | 13.5 µM | 32.8 µM |  |  |
| S=C(Nc1ccccc1)N1C/C(=C/c2ccccc2)S/C1=N\c1ccccc1 | > 100 µM | > 100 µM | > 100 µM |  |  |
| COc1ccc(/C=C2\S/C(=N\c3ccc(Br)cc3)N(C)C2=O)cc1 | 17 µM | > 100 µM | > 100 µM |  |  |
| COc1ccc(/C=C2\S/C(=N\c3ccc(C(C)(C)C)cc3)N(C)C2=O)cc1 | > 100 µM | > 100 µM | 46.7 µM |  |  |
| COc1ccc(/C=C2/CN(C)/C(=N/c3ccc([N+](=O)[O-])cc3)S2)cc1 | 10.2 µM | 9.8 µM | > 100 µM |  |  |
| COc1ccc(/C=C2/CN(C)/C(=N/c3ccc(F)cc3)S2)cc1 | 10 µM | 8 µM | 42.8 µM |  |  |
| COc1ccc(/C=C2/CN(C)/C(=N/c3ccc(C(F)(F)F)cc3)S2)cc1 | 34.3 µM | 24.1 µM | 72 µM |  |  |
| C=CC/N=C1/NCC(=C)S1 | > 100 µM | > 100 µM | > 100 µM |  |  |
| COc1ccc(/C=C2/CN(C)/C(=N/c3ccc(C(C)(C)C)cc3)S2)cc1 | 25.9 µM | 28.7 µM | 23.5 µM |  |  |
| COc1ccc(/C=C2\S/C(=N\c3ccc(F)cc3)N(C)C2=O)cc1 | 13.3 µM | 66.5 µM | > 100 µM |  |  |
| COc1ccc(/C=C2/CN(C)/C(=N/c3ccc(C)cc3)S2)cc1 | 11.1 µM | 7.6 µM | 65.7 µM |  |  |
| COc1ccc(/C=C2\S/C(=N\c3cc(C(F)(F)F)cc(C(F)(F)F)c3)N(C)C2=O)cc1 | > 100 µM | 77.8 µM | > 100 µM |  |  |
| C=C1CN(C)/C(=N/c2ccccc2)S1 | > 100 µM | > 100 µM | > 100 µM |  |  |
| COc1ccc(/C=C2/CN(C)/C(=N/c3ccc(OC)cc3)S2)cc1 | 15.9 µM | 8.7 µM | 65.9 µM |  |  |
| CCOc1cc(/C=C2\S/C(=N/c3ccc(Cl)c(C(=O)O)c3)N(C)C2=O)cc(Cl)c1O |  |  |  | 7.97 µM | 108 µM |
| COc1ccc(/C=C2\S/C(=N\c3ccc(OC)cc3)N(C)C2=O)cc1 | > 100 µM | > 100 µM | > 100 µM |  |  |
| C=CC/N=C1\S/C(=C\c2ccc(OC)cc2)C(=O)N1C | 79.3 µM | > 100 µM | > 100 µM |  |  |
| COc1ccc(/C=C2\S/C(=N\c3ccccc3)N(C)C2=O)cc1 | > 100 µM | > 100 µM | > 100 µM |  |  |
| COc1ccc(/C=C2/CN(C)/C(=N/c3ccc(Cl)cc3)S2)cc1 | 9.8 µM | 7.6 µM | 39.6 µM |  |  |
| C=C1CN/C(=N/c2ccccc2)S1 | > 100 µM | > 100 µM | > 100 µM |  |  |
| O=c1[nH]cc(F)c(=O)[nH]1 [FLUOROURACIL] | 20.4 µM | 3.2 µM |  |  |  |
